From US20060223792A1, “Phenyl and pyridyl LTA4H modulators” (priority 2005, published 2006) come the findings set out here.

The target of assay [1] is T1, recombinant human LTA4 hydrolase (rhLTA4H) (Homo sapiens, UniProt P09960).
T1 construct: made in house; host or cells: Spodoptera frugiperda (Sf-9) cells, baculovirus (pFastBac1)
T1 sequence (P09960 1-611): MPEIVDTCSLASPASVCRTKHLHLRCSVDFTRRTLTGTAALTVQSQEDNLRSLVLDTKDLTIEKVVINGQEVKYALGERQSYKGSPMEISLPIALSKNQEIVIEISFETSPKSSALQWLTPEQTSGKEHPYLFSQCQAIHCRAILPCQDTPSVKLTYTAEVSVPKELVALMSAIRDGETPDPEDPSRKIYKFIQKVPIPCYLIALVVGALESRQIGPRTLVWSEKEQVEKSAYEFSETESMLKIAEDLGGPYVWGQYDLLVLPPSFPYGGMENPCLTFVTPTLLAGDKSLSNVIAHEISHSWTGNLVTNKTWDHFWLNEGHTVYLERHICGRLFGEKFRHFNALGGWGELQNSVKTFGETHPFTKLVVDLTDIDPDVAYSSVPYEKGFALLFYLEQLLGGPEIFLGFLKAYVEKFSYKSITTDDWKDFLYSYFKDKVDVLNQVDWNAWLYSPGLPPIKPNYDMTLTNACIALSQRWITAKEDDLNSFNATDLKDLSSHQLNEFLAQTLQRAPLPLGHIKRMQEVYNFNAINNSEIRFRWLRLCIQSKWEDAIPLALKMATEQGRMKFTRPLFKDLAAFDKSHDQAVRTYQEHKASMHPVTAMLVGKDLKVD
In words: Recombinant human LTA4 hydrolase assay for LTA4 hydrolase inhibitor activity. It is filed as biochemical. Particulars: recombinant human LTA4H, LTB4 quantified by enzyme-linked immunoassay; average of one to three determinations; read-out: IC50. A digest of the protocol: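 Sf-9-expressed rhLTA4H (36 ng) preincubated 10 min at rt with compound in 0.1 M potassium phosphate pH 7.4, 5 mg/mL fatty-acid-free BSA; 9 ng LTA4 free acid added, 10 min at rt in 225 μL. LTB4 measured by enzyme immunoassay; IC50 from 4-parameter fit, mean of one to three determinations.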

Assay [2] deals with ex vivo stimulated LTB4 production. The assay is described as follows: Murine arachidonic acid-induced inflammation model: ex vivo stimulated LTB4 production in blood. To be noted: Mus musculus; 30 mg/kg oral gavage, female Balb/c mice; blood taken 3 h after arachidonic acid, stimulated ex vivo with A23187; read-out: % Inh. LTB4. How it is done: Murine Arachidonic Acid-Induced Inflammation Model
LTA4H inhibitor compounds of the present invention were dissolved in 20% cyclodextran/H2O at a concentration of 3 mg/mL. The solutions were administered by oral gavage to female Balb/c mice weighing approximately 20 grams each (0.2 mL per mouse, 30 mg of LTA4H inhibitor compound per kg). Sixty minutes after being administered an LTA4 inhibitor, each mouse received topical application of 20 μL of arachidonic acid (100 mg/mL in acetone) to the left ear and 20 μL of acetone only to the right ear. After 3 h, the mice were sacrificed, blood was withdrawn in heparinized syringes, and 8 mm ear biopsies were taken. Ear biopsies were weighed to determine edema and then frozen at −80° C. until needed for determination of neutrophil influx.
One hundred-microliter aliquots of heparinized blood were added to wells of a microtiter plate, along with equal volumes of RPMI-1640 medium, and calcium ionophore A23187 was added to each sample well (final concentration=[…]). The microtiter plate contents were incubated for 10 min at 37° C. in a humidified incubator. The reaction was terminated by centrifugation (833×g, 10 min at 4° C.). Supernatants were analyzed for LTB4 by a commercially available enzyme-linked immunoassay (Cayman Chemical Co.) in accordance with the manufacturer's instructions. The percent inhibition of ex vivo stimulated LTB4 production (% Inh. LTB4) was determined by comparison to animals treated identically except that the solution admininstered by oral gavage was devoid of inhibitor compound.

Each structure is given as a SMILES string.

As usually defined, the IC50 is the midpoint of a concentration-inhibition curve. Consider `O=C(O)C1CCN(Cc2ccc(OCCc3ccccc3)cc2)CC1` [Example 96, 1-(4-Phenethyloxy-benzyl)-piperidine-4-carboxylic acid], for which the IC50 in assay [1] was determined as 10 nM. In addition, the inhibition at 30 mg/kg in assay [2] turned out to be 80%.

As for `O=C(O)C1CCN(CCOc2ccc(OCCCc3ccccc3)cc2)CC1` [Example 117, 1-{2-[4-(3-Phenyl-propoxy)-phenoxy]-ethyl}-piperidine-4-carboxylic acid], in assay [1], the IC50 is 51 nM. In addition, in assay [2], the inhibition at 30 mg/kg worked out at 74%.

As for `O=C1CCCN1C1CCN(Cc2ccc(OCCc3ccccc3)cc2)CC1` [Example 99, 1-[1-(4-Phenethyloxy-benzyl)-piperidin-4-yl]-pyrrolidin-2-one], the concentration for half-maximal inhibition (IC50) in assay [1] was found to be 17 nM. In addition, the inhibition at 30 mg/kg in assay [2] was found to be 68%.

In the case of `O=C(O)C1CCN(Cc2ccc(OCCCc3ccccc3)cc2)CC1` [Example 112, 1-[4-(3-Phenyl-propoxy)-benzyl]-piperidine-4-carboxylic acid], the IC50 in assay [1] was found to be 4 nM. Besides, the inhibition at 30 mg/kg in assay [2] is 91%.

As to `CN(C(=O)Oc1ccc(OCCN2CCC(O)(c3ccccc3)CC2)cc1)c1ccccc1` [Example 40, Methyl-phenyl-carbamic acid 4-[2-(4-hydroxy-4-phenyl-piperidin-1-yl)-ethoxy]-phenyl ester], the IC50 in assay [1] came out at 73 nM. Besides, in assay [2], the inhibition at 30 mg/kg was found to be 79%.

For the molecule `O=C(O)C1CCN(CCc2ccc(OCCc3ccccc3)cc2)CC1` [Example 81, 1-[2-(4-Phenethyloxy-phenyl)-ethyl]-piperidine-4-carboxylic acid], the half-inhibitory concentration (IC50) in assay [1] came out at 19 nM. Moreover, the inhibition at 30 mg/kg in assay [2] stood at 78%.
